Measurements from patent US20240264164A1, “DETERGENTS AND METHODS” (OXFORD UNIVERSITY INNOVATION LIMITED, priority 2021, published 2024).

Experiments:
membrane protein AqpZ [1] = target: T1, membrane protein AqpZ (Escherichia coli, UniProt P60844); experiment: Stability of AqpZ in detergent solution after extraction from native membrane and IMAC; set-up: made in house; conditions: extraction with 1% w/v detergent solution, IMAC purification
Experimental: Different solutions of the membrane protein AqpZ were prepared by extracting the protein from its native membrane using a 1% w/v detergent solution and then purifying the samples using IMAC. The following solutions were prepared: one containing the hybrid detergent, one containing DDM, one containing C8E4 and one containing a mixture of C8E4 and DDM. AgpZ precipitated from the solutions containing C8E4, even when DDM was also present.

membrane protein AqpZ [2] = target: T1, membrane protein AqpZ; experiment: nano-electrospray ionization mass spectrometry of AqpZ in detergent (FIG. 9); set-up: made in house; host or cells: bacterial culture (LB broth, ampicillin); conditions: nESI, Q Exactive
Experimental: The samples were analysed using a Q-Exactive mass spectrometer using the following instrumental parameters: • Injection flatapole: 7.9 V • Inter flatapole lens: 6.9 V • Bent flatapole: 5.9 V • Transfer multipole: 4 V • Capillary voltage: 1.2 kV • Source temperature: 100° C. • Voltage applied to the C-trap entrance lens: 5.8 V • In-source trapping voltage: 0-200 V • Higher-energy collisional dissociation (HCD) cell voltage: 100-200 V • HCD cell pressure: 9×10^−10 mBar • Noise level parameter: 3 • Microscans: 10 • Resolution: 17,500
The suitability of the hybrid detergent in nano-electrospray ionization was investigated using a Q Exactive mass spectrometer. The results are shown in FIG. 9, along with results obtained using DDM and C8E4.

T1 sequence (P60844 whole entry): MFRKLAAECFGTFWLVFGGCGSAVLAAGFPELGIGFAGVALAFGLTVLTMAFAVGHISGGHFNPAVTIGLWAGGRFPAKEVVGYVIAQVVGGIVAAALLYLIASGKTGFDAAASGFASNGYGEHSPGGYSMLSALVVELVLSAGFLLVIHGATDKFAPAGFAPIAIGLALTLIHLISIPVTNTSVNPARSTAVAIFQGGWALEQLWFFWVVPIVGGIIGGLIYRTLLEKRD

| Compound | stability of AqpZ in detergent solution (membrane protein AqpZ [1]) | lipid-bound states of AqpZ detected (membrane protein AqpZ [2]) | level of delipidation of AqpZ (membrane protein AqpZ [2]) |
| --- | --- | --- | --- |
| CCCCCCCCCCCCOCC(COCCOCCOCCOCCO)Oc1ccc(OCCOC2OC(CO)C(C3OC(CO)C(O)C(O)C3O)C(O)C2O)cc1 (stereo not drawn) | stable | detected | – |
| CCCCCCCCOCCOCCOCCOCCO [C8E4, tetraethylene glycol monooctyl ether] | precipitated | – | fully delipidating |
| CCCCCCCCCCCCO[C@@H]1O[C@H](CO)[C@@H](O[C@H]2O[C@H](CO)[C@@H](O)[C@H](O)[C@H]2O)[C@H](O)[C@H]1O [DDM, n-dodecyl-β-D-maltoside] | – | detected | relatively low levels of delipidation |
